From US20230365537A1, “POLO LIKE KINASE 4 INHIBITORS” (ORIC Pharmaceuticals, Inc., priority 2021, published 2023)

How the values were obtained:
CHP-134 cells = experiment: CHP134 CellTiter-Glo (CTG) Assay; type: cell-based; conditions: Homo sapiens, CHP-134, 120 h, 5 days, viable cells by CellTiter-Glo
Description: Cells were seeded (200 cells/well) in 384-well plates for 16 hours. On day two, nine serial 1:3 compound dilutions were made in DMSO in a 96-well plate. The compounds were then further diluted into growth media using a BRAVO robot (Agilent, Santa Clara, CA). The diluted compounds were then added to quadruplicate wells in the 384-well cell plate and incubated at 37° C. and 5% CO2. After 5 days, relative numbers of viable cells were measured by luminescence using CellTiter-Glo® (Promega) according to the manufacturer’s instructions and read on a SPARK Multimode Microplate Reader (Tecan, Mannedorf Switzerland). The IC50 calculations for the values reported in Table 2 were carried out using Prism 6.0 software (GraphPad, San Diego).

[1] = molecular target: human recombinant Aurora B (Homo sapiens (Human), UniProt Q96GD4); experiment: Aurora B Kinase Biochemical Assay (ADP-Glo); conditions: ratio of Aurora B IC50 to PLK4 IC50 (selectivity)
Sequence of human recombinant Aurora B (Q96GD4 whole entry): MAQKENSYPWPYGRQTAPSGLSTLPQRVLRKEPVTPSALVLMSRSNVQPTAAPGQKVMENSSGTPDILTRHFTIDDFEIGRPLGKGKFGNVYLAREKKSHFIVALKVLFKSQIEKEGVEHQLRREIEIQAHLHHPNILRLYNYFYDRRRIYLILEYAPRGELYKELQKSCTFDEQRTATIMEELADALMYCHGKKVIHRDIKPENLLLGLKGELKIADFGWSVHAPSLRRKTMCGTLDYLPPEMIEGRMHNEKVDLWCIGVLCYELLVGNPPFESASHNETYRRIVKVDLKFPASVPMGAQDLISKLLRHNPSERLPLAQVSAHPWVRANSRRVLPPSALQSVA
In short: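 Recombinant human Aurora B (20 nM in pH 7.5 HEPES buffer with MgCl2, EGTA, DTT, Brij-35, BSA) preincubated with compound 15 min at RT. ADP formed quantified by ADP-Glo luminescence after ATP depletion (40 min) and detection (30 min). IC50 from four-parameter non-linear regression.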

[2] = molecular target: human recombinant Aurora A (Homo sapiens (Human), UniProt O14965); experiment: Aurora A Kinase Biochemical Assay (ADP-Glo); conditions: ratio of Aurora A IC50 to PLK4 IC50 (selectivity)
Sequence of human recombinant Aurora A (O14965 whole entry): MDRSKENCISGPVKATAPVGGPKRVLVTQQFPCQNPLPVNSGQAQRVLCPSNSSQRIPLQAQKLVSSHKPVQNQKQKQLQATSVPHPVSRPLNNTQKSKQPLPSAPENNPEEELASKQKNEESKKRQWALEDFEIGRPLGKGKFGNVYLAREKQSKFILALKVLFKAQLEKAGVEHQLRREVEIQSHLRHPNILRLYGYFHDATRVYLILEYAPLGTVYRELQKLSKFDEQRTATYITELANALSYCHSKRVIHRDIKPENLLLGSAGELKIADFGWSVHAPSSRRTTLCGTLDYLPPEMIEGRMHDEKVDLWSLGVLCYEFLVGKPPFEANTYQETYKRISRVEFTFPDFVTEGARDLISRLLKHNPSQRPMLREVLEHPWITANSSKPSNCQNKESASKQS

human recombinant PLK4 = human recombinant PLK4 (Homo sapiens (Human), UniProt O00444); experiment: PLK4 Biochemical Assay (ADP-Glo); conditions: 0.5 nM PLK4, 8.0 µM ATP, 4.7 µM MBP, 6 hours at RT
Sequence of human recombinant PLK4 (O00444 whole entry): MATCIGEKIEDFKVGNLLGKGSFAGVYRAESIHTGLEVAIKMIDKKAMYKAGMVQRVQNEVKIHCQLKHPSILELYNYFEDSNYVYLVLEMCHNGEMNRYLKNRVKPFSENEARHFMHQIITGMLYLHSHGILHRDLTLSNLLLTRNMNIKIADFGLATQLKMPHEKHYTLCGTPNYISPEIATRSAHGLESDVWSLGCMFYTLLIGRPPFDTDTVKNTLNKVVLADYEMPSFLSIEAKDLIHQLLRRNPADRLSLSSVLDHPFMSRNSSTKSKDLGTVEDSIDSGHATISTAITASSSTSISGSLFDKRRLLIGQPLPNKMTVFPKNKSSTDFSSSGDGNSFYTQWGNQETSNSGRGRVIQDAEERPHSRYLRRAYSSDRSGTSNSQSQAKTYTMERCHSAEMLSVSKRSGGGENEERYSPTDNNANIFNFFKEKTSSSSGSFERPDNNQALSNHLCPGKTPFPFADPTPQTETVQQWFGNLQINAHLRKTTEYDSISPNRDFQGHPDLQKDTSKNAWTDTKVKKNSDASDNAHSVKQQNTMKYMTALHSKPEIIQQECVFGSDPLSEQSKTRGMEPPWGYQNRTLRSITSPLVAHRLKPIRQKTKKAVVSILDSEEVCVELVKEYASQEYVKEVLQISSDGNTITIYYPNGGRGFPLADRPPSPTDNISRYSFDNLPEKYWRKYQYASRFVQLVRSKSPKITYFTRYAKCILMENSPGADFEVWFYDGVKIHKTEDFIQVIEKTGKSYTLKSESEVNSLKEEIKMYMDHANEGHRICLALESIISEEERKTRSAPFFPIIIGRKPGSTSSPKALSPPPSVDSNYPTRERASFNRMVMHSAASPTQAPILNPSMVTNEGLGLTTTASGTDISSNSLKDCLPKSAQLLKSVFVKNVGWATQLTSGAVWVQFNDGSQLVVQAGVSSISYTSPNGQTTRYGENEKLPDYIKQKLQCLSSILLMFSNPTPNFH
In short: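 Recombinant human PLK4 (added at 1.0 nM) was preincubated 15 min at RT with compound in 50 mM HEPES pH 7.5, 10 mM MgCl2, 1 mM EGTA, 1 mM DTT, 0.01% Brij-35, 0.01% BSA. ADP formed was detected by ADP-Glo luminescence (40 min ATP depletion, 30 min detection). IC50 came from a four-parameter fit.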

SMILES	[Aurora B IC50 (nM)]/[PLK4 IC50 (nM)] [1]	[Aurora A IC50 (nM)]/[PLK4 IC50 (nM)] [2]	IC50 (human recombinant PLK4)	IC50 (CHP-134 cells)
COc1ccc2c(c1)[C@]1(CC1c1ccc3c(/C=C/c4ccc(CN5C[C@@H](C)O[C@@H](C)C5)cc4)n[nH]c3c1)C(=O)N2 (stereo partly shown) [CFI-400495, reference compound]				9.08 nM
COc1ccc2c(c1)[C@]1(C[C@H]1c1ccc3c(Nc4nc(OC)ncc4OC)n[nH]c3c1)C(=O)N2 [Example 156, (1R,2S)-2-{3-[(2,5-dimethoxypyrimidin-4-yl)amino]-1H-indazol-6-yl}-5′-methoxyspiro[cyclopropane-1,3′-indol]-2′(1′H)-one]				494 nM
COc1ccc2c(c1)[C@]1(C[C@H]1c1ccc3c(Nc4cc(N5CCN(C)C5=O)cnc4OC)n[nH]c3c1)C(=O)N2 [Example 221, (1R,2S)-5′-methoxy-2-(3-{[2-methoxy-5-(3-methyl-2-oxoimidazolidin-1-yl)pyridin-3-yl]amino}-1H-indazol-6-yl)spiro[cyclopropane-1,3′-indol]-2′(1′H)-one]				849 nM
COc1ccc2c(c1)[C@]1(C[C@H]1c1ccc3c(Nc4cc(S(=O)(=O)C5CCOCC5)ccc4OC)n[nH]c3c1)C(=O)N2 [Example 224, (1R,2S)-5′-methoxy-2-{3-[2-methoxy-5-(oxane-4-sulfonyl)anilino]-1H-indazol-6-yl}spiro[cyclopropane-1,3′-indol]-2′(1′H)-one]				2020 nM
COc1ccc2c(c1)[C@]1(C[C@H]1c1ccc3c(Nc4ncc(C(=O)N(C)C)nc4OC)n[nH]c3c1)C(=O)N2 [Example 236, 6-methoxy-5-({6-[(1R,2S)-5′-methoxy-2′-oxo-1′,2′-dihydrospiro[cyclopropane-1,3′-indol]-2-yl]-1H-indazol-3-yl}amino)-N,N-dimethylpyrazine-2-carboxamide]	114.8983	949.6021	2.26 nM	
CCOc1nc(C(=O)N(C)C)cnc1Nc1n[nH]c2cc([C@@H]3C[C@@]34C(=O)Nc3ccc(OC)cc34)ccc12 [Example 237, 6-ethoxy-5-({6-[(1R,2S)-5′-methoxy-2′-oxo-1′,2′-dihydrospiro[cyclopropane-1,3′-indol]-2-yl]-1H-indazol-3-yl}amino)-N,N-dimethylpyrazine-2-carboxamide]	369	3385.3211	2.94 nM	
COc1ccc2c(c1)[C@]1(C[C@H]1c1ccc3c(Nc4cnc(P(C)(C)=O)cc4OC)n[nH]c3c1)C(=O)N2 [Example 249, (1R,2S)-2-(3-{[6-(dimethylphosphoryl)-4-methoxypyridin-3-yl]amino}-1H-indazol-6-yl)-5′-methoxyspiro[cyclopropane-1,3′-indol]-2′(1′H)-one]	451.7751	2585.7077	6.56 nM	
COc1ccc2c(c1)[C@]1(C[C@H]1c1ccc3c(Nc4ccc(C(=O)NC(CF)CF)nc4OC)n[nH]c3c1)C(=O)N2 [Example 250, N-(1,3-difluoropropan-2-yl)-6-methoxy-5-({6-[(1R,2S)-5′-methoxy-2′-oxo-1′,2′-dihydrospiro[cyclopropane-1,3′-indol]-2-yl]-1H-indazol-3-yl}amino)pyridine-2-carboxamide]	110.6011	819.6509	6.19 nM	
CCP(=O)(CC)c1ccc(OC)c(Nc2n[nH]c3cc([C@@H]4C[C@@]45C(=O)Nc4ccc(OC)cc45)ccc23)c1 [Example 261, (1R,2S)-2-{3-[5-(diethylphosphoryl)-2-methoxyanilino]-1H-indazol-6-yl}-5′-methoxyspiro[cyclopropane-1,3′-indol]-2′(1′H)-one]	2807.8381	5824.2730	7.91 nM	
COc1ccc2c(c1)[C@]1(C[C@H]1c1ccc3c(Nc4nc(C(C)(C)O)ccc4OC)n[nH]c3c1)C(=O)N2 [Example 278, (1R,2S)-2-(3-{[6-(2-hydroxypropan-2-yl)-3-methoxypyridin-2-yl]amino}-1H-indazol-6-yl)-5′-methoxy-1′H-spiro[cyclopropane-1,3′-indol]-2′-one]	423.6318	1269.9004	0.804 nM	

Continued by falling IC50 (human recombinant PLK4), values first:

[Aurora B IC50 (nM)]/[PLK4 IC50 (nM)] [1]	[Aurora A IC50 (nM)]/[PLK4 IC50 (nM)] [2]	IC50 (human recombinant PLK4)	SMILES	IC50 (CHP-134 cells)
294.8429	1330.5457	9.33 nM	COc1ccc2c(c1)[C@]1(C[C@H]1c1ccc3c(Nc4ccc(C#N)nc4OC)n[nH]c3c1)C(=O)N2 [Example 260, 6-methoxy-5-({6-[(1R,2S)-5′-methoxy-2′-oxo-1′,2′-dihydrospiro[cyclopropane-1,3′-indol]-2-yl]-1H-indazol-3-yl}amino)pyridine-2-carbonitrile]	
365.8694	518.4227	9.28 nM	COc1ccc2c(c1)[C@]1(C[C@H]1c1ccc3c(Nc4cc5oc(C)nc5cc4Cl)n[nH]c3c1)C(=O)N2 [Example 252, (1R,2S)-2-{3-[(5-chloro-2-methyl-1,3-benzoxazol-6-yl)amino]-1H-indazol-6-yl}-5′-methoxyspiro[cyclopropane-1,3′-indol]-2′(1′H)-one]	
88.7161	709.6288	5.98 nM	COc1ccc2c(c1)[C@]1(C[C@H]1c1ccc3c(Nc4cnc(C(=O)N(C)C)cc4OC)n[nH]c3c1)C(=O)N2 [Example 253, 4-methoxy-5-({6-[(1R,2S)-5′-methoxy-2′-oxo-1′,2′-dihydrospiro[cyclopropane-1,3′-indol]-2-yl]-1H-indazol-3-yl}amino)-N,N-dimethylpyridine-2-carboxamide]	
1049.1355	1120.5641	2.2 nM	CCOc1cc(=O)n(C)nc1Nc1n[nH]c2cc([C@@H]3C[C@@]34C(=O)Nc3ccc(OC)cc34)ccc12 [Example 277, (1R,2S)-2-{3-[(4-ethoxy-1-methyl-6-oxo-1,6-dihydropyridazin-3-yl)amino]-1H-indazol-6-yl}-5′-methoxyspiro[cyclopropane-1,3′-indol]-2′(1′H)-one]	
309.1097	727.2256	1.93 nM	COc1ccc2c(c1)[C@]1(C[C@H]1c1ccc3c(Nc4ncc(S(=O)(=O)C(F)F)cc4OC)n[nH]c3c1)C(=O)N2 [Example 280, (1R,2S)-2-{3-[(5-difluoromethanesulfonyl-3-methoxypyridin-2-yl)amino]-1H-indazol-6-yl}-5′-methoxy-1′H-spiro[cyclopropane-1,3′-indol]-2′-one]	
2792.6646	37425.1497	1.34 nM	CCOc1cc(S(C)(=O)=O)ncc1Nc1n[nH]c2cc([C@@H]3C[C@@]34C(=O)Nc3ccc(OC)cc34)ccc12 [Example 279, (1R,2S)-2-{3-[(4-ethogy-6-methanesulfonylpyridin-3-yl)amino]-1H-indazol-6-yl}-5′-methoxy-1′H-spiro[cyclopropane-1,3′-indol]-2′-one]	
230	2162.7118	0.59 nM	CCOc1cc(S(=O)(=O)NC)cnc1Nc1n[nH]c2cc([C@@H]3C[C@@]34C(=O)Nc3ccc(OC)cc34)ccc12 [Example 275, 5-ethoxy-6-({6-[(1R,2S)-5′-methoxy-2′-oxo-1′,2′-dihydrospiro[cyclopropane-1,3′-indol]-2-yl]-1H-indazol-3-yl}amino)-N-methylpyridine-3-sulfonamide]	
